Experimental data as given in patent US9126980B2, “Compounds for inhibiting the interaction of BCL2 with binding partners” (Novartis AG, priority 2011, dated 2015).
Read-outs that look alike come from different tables or passages of the source.

How the values were obtained:
[1] = target: BCL-2 binding to biotinylated BAD peptide (Homo sapiens (Human), UniProt P10415); assay: SPR (Biacore) solution inhibition assay, BCL-2 binding to BAD peptide surface; conditions: read-out: BCL2_SPR IC50 BAD
From the text: (§1) The present method includes utility of a Surface plasmon resonance (SPR)-based biosensor (Biacore™′ GE Healthcare, Uppsala, Sweden) to characterize BCL-2 inhibitors.
(§2) Biacore™ utilizes the phenomenon of surface plasmon resonance (SPR) to detect and measure binding interactions. In a typical Biacore experiment, one of the interacting molecules (ligand) is immobilized on a flexible dextran matrix while the interacting partner (analyte) is allowed to flow across that surface. A binding interaction results in an increase in mass on the sensor surface and a corresponding direct change in the refractive index of the medium in the vicinity of the sensor surface. Changes in refractive index or signal are recorded in resonance units (R.U.) Signal changes due to association and dissociation of complexes are monitored in a non-invasive manner, continuously and in real-time, the results of which are reported in the form of a sensorgram.
(§3) The SPR assay is configured to examine solution inhibition of BCL-2 binding to peptide derivatized sensor surfaces to generate IC50 values as a measure of inhibitor potency.
(§4) Solution Inhibition Assay Format:
(§5) Biacore™ A100 (GE Healthcare, Uppsala, Sweden) was used to conduct all experiments reported herein. Sensor surface preparation and all interaction analyses experiments were performed at 25° C. Reagents were purchased from GE Healthcare. Running buffer containing 10 mM Hepes, pH7.4, 150 mM sodium chloride, 1.25 mM Dithiothreitol, 3% Dimethyl sulfoxide and 0.05% polysorbate 20 were utilized throughout all analyses.
(§6) Biotinylated BAK, BAD and NOXA peptides were diluted to 10 nM in running buffer and captured onto a sensor surface pre-derivatized with streptavidin (sensor chip SA) to peptide surface densities in the range 50-100 R.U. Peptide captured surfaces were blocked with 500 μM PEO2-Biotin.
(§7) Interaction analyses were performed by first equilibrating each sample within a 6 point three fold compound dilution series in the range […] with 56 nM BCL-2 for one hour during instrument start-up procedures. Protein compound mixtures were then injected over each peptide surface in parallel for 60 seconds at a flow-rate of 30 μL/min. 56 nM BCL-2 control samples were also prepared and run at regular intervals during the assay. Surface regeneration was performed at the end of each analysis cycle by two 30 second injections of 10 mM Glycine, pH 2.5, 1M Sodium Chloride, 0.05% polysorbate 20. Samples and control compound samples were run in duplicate and controls are also run at regular intervals during the assay to monitor surface and assay performance.
(§8) Data analyses are carried out using Biacore™ A100 evaluation software v1.1 to validate assay quality. Binding level report points were used relative to BCL-2 control samples to calculate % inhibition values for each compound protein mixture. […] The range of data shown in table 1 represents the high and low IC50 values obtained from multiple experiments.

[2] = target: BCL-2 binding to biotinylated BAK peptide (Homo sapiens (Human), UniProt P10415); assay: SPR (Biacore) solution inhibition assay, BCL-2 binding to BAK peptide surface; conditions: read-out: BCL2_SPR IC50 BAK
Chain of BCL-2 binding to biotinylated BAK peptide (P10415 whole entry): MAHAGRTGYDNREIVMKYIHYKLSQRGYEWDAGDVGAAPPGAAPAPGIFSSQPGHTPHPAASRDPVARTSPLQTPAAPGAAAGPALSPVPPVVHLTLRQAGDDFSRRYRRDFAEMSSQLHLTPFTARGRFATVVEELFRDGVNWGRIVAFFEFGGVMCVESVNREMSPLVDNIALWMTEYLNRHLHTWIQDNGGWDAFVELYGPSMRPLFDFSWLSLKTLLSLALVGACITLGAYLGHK
From the text: as §1, §2, §3, §4, §5, §6, §7, §8

[3] = high and low IC50 values from multiple experiments, 56 nM BCL-2, BAD peptide sensor surface, 25° C.
[4] = high and low IC50 values from multiple experiments, 56 nM BCL-2, BAK peptide sensor surface, 25° C.

Chain of BCL-2 binding to biotinylated BAD peptide (P10415 whole entry): as above

CCCCN(CCCC)C(=O)c1cc(C)n(-c2ccc(NS(=O)(=O)c3ccccc3)cc2C(=O)N2Cc3ccccc3C[C@H]2CO)n1 (stereo in doubt) [Example 1, N,N-dibutyl-1-(2-(3-(hydroxymethyl)-1,2,3,4-tetrahydroisoquinoline-2-carbonyl)-4-(phenylsulfonamido)phenyl)-5-methyl-1H-pyrazole-3-carboxamide]
IC50 [1]: 629 to 756 nM
IC50 [2]: 474 to 564 nM

CCCCN(CCCC)C(=O)c1cc(C)n(-c2ccc(NS(C)(=O)=O)cc2C(=O)N2Cc3ccccc3C[C@H]2CO)n1 [Example 2]
IC50 [1]: 367 to 387 nM
IC50 [2]: 260 to 330 nM

CCCCN(CCCC)C(=O)c1cc(C)n(-c2ccc(NS(=O)(=O)C(C)C)cc2C(=O)N2Cc3ccccc3C[C@H]2CO)n1 [Example 3]
IC50 [1]: 126 to 127 nM
IC50 [2]: 87.8 to 93 nM

CCCCN(CCCC)C(=O)c1cc(C)n(-c2ccc(NS(=O)(=O)c3ccc(-c4ccc(Cl)cc4)cc3)cc2C(=O)N2Cc3ccccc3C[C@H]2CO)n1 [Example 9]
IC50 [1, 3]: > 16000 nM

CCCCN(CCCC)C(=O)c1cc(C)n(-c2ccc(NS(=O)(=O)c3ccc(Oc4ccccc4C)cc3)cc2C(=O)N2Cc3ccccc3C[C@H]2CO)n1 [Example 10]
IC50 [1, 3]: > 16000 nM
IC50 [2, 4]: 3020 to 3680 nM

CCCCN(CCCC)C(=O)c1cc(C)n(-c2ccc(NS(=O)(=O)c3ccccc3Cl)cc2C(=O)N2Cc3ccccc3C[C@H]2CO)n1 [Example 14]
IC50 [2, 4]: 435 to 683 nM

CCCCN(CCCC)C(=O)c1cc(C)n(-c2ccc(NS(=O)(=O)c3cc(Cl)ccc3F)cc2C(=O)N2Cc3ccccc3C[C@H]2CO)n1 [Example 17]
IC50 [2, 4]: 828 to 871 nM

CCCCN(CCCC)C(=O)c1cc(C)n(-c2ccc(NS(=O)(=O)c3ccc(NC(C)=O)c(Cl)c3)cc2C(=O)N2Cc3ccccc3C[C@H]2CO)n1 [Example 25]
IC50 [1, 3]: 418 to 436 nM
IC50 [2, 4]: 252 to 257 nM

CCCCN(CCCC)C(=O)c1cc(C)n(-c2ccc(NS(=O)(=O)c3ccc(CNC(=O)c4ccc(Cl)cc4)s3)cc2C(=O)N2Cc3ccccc3C[C@H]2CO)n1 [Example 30]
IC50 [2, 4]: 2280 to 2510 nM
